One molecule from patent US20120196927A1, “PROPHYLACTIC AND/OR THERAPEUTIC AGENT FOR METABOLIC SYNDROME” (priority 2009, published 2012) can be followed below.

The assay concerns GLUT4 protein. In words: Diabetes model mice: GLUT4 protein expression level (Western blotting). It counts as in vivo, mouse. Particulars: ob/ob mice, nobiletin 200 mg/kg/day, Pioglitazone 30 mg/kg/day. How it is done: After finishing the experiment, the white adipose tissue and skeletal muscle were excised according to that described in the example 1, protein expression level of GLUT 4 were detected by using Western blotting method. The expression levels of GLUT4 protein were determined by using Na^+/K^+ ATPase α-1 protein as an internal reference.
In general terms: A western blot detects proteins with antibodies after separation by electrophoresis.

[1] abbreviates: Western blotting, Vehicle = 1.00, 5 weeks.

As to `COc1ccc(-c2cc(=O)c3c(OC)c(OC)c(OC)c(OC)c3o2)cc1OC` [nobiletin], the “GLUT4 protein expression amount in the skeletal muscle, times higher than vehicle administration group” value is on record as “about 6 times” and the “GLUT4 protein expression level in the white adipose tissue, times higher than vehicle administration group” value turned out to be 1.7 times. Besides, under setting [1], the “Gene expression level (ratio), Skeletal muscle (GLUT4 protein)” value amounted to 6.32 and the “Gene expression level (ratio), White adipose tissue (GLUT4 protein)” value is on record as 1.75.
